Measured values reported in patent US8618303B2, “Pyrrolidine derivatives” (Hoffmann-La Roche Inc., priority 2011, dated 2013).

Target: human NK3 receptor (Homo sapiens (Human), UniProt P29371)
Experiment: [3H]SR142801 competition binding assay
Conditions: not given
Description: hNK3 receptor binding experiment were performed using [^3H]SR142801 (Catalog No. TRK1035, specific activity: 74.0 Ci/mmol, Amersham, GE Healthcare UK limited, Buckinghamshire, UK) and membrane isolated from HEK293 cells transiently expressing recombinant human NK3 receptor. After thawing, the membrane homogenates were centrifuged at 48,000×g for 10 min at 4° C., the pellets were resuspended in the 50 mM Tris-HCl, 4 mM MnCl2, 1 μM phosphoramidon, 0.1% BSA binding buffer at pH 7.4 to a final assay concentration of 5 μg protein/well. […] At the end of the incubation, membranes were filtered onto unitfilter (96-well white microplate with bonded GF/C filter preincubated 1 h in 0.3% PEI+0.3% BSA, Packard BioScience, Meriden, Conn.) with a Filtermate 196 harvester (Packard BioScience) and washed 4 times with ice-cold 50 mM Tris-HCl, pH 7.4 buffer. Nonspecific binding was measured in the presence of 10μM SB222200 for both radioligands. The radioactivity on the filter was counted (5 min) on a Packard Top-count microplate scintillation counter with quenching correction after addition of 45 μl of microscint 40 (Canberra Packard S.A., Ziirich, Switzerland) and shaking for 1 h. Inhibition curves were fitted according to the Hill equation: y=100/(1+(x/IC50), where nH=slope factor using Excel-fit 4 software (Microsoft). IC50 values were derived from the inhibition curve and the affinity constant (Ki) values were calculated using the Cheng-Prussoff equation Ki =IC50/(1+[L]/KD) where [L] is the concentration of radioligand and KD is its dissociation constant at the receptor, derived from the saturation isotherm. All experiments were performed in duplicate and the mean±standard error (SEM) of the individual Ki values was calculated.

Chain of human NK3 receptor (P29371 whole entry): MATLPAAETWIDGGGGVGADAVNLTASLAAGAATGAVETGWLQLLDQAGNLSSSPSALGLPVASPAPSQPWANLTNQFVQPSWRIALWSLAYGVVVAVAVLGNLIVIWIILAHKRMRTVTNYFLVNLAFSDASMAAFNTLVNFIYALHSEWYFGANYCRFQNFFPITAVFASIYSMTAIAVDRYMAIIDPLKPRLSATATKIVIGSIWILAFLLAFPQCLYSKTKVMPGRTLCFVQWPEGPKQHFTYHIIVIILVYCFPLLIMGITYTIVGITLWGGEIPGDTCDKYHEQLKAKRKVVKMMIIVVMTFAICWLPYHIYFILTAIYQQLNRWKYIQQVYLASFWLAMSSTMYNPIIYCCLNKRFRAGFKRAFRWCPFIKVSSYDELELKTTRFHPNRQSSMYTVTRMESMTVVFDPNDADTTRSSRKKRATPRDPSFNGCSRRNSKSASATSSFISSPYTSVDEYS

| SMILES | Ki |
| --- | --- |
| CN(C(=O)Oc1ccc(F)cc1)[C@@H]1CN(C(=O)C2CCN(c3ccc(F)cn3)CC2)C[C@@]1(C)c1ccc(Cl)cc1 (racemic) [Example 23, rac-[(3S,4R)-4-(4-Chloro-phenyl)-1-(5′-fluoro-3,4,5,6-tetrahydro-2H-[1,2′]bipyridinyl-4-carbonyl)-4-methyl-pyrrolidin-3-yl]-methyl-carbamic acid 4-fluoro-phenyl ester] | 0.0435 µM |
| CC(=O)c1ccc(N2CCC(C(=O)N3C[C@@H](N(C)C(=O)Oc4ccc(F)cc4)[C@](C)(c4ccc(Cl)cc4)C3)CC2)nc1 (racemic) [Example 31, rac-[(3S,4R)-1-(5′-Acetyl-3,4,5,6-tetrahydro-2H-[1,2′]bipyridinyl-4-carbonyl)-4-(4-chloro-phenyl)-4-methyl-pyrrolidin-3-yl]-methyl-carbamic acid 4-fluoro-phenyl ester] | 0.0081 µM |
| COc1ccc(N2CCC(C(=O)N3C[C@@H](N(C)C(=O)Oc4ccc(F)cc4)[C@](C)(c4ccc(Cl)cc4)C3)CC2)nn1 (racemic) [Example 35, rac-{(3S,4R)-4-(4-Chloro-phenyl)-1-[1-(6-methoxy-pyridazin-3-yl)-piperidine-4-carbonyl]-4-methyl-pyrrolidin-3-yl}-methyl-carbamic acid 4-fluoro-phenyl ester] | 0.0213 µM |
| CN(C(=O)Oc1ccc(F)cc1)[C@@H]1CN(C(=O)C2CCN(C3CCCCC3)CC2)C[C@@]1(C)c1ccc(Cl)cc1 [Example 25, [(3S,4R)-4-(4-Chloro-phenyl)-1-(1-cyclohexyl-piperidine-4-carbonyl)-4-methyl-pyrrolidin-3-yl]-methyl-carbamic acid 4-fluoro-phenyl ester] | 0.0915 µM |

Same assay, conditions: membranes from HEK293 cells transiently expressing recombinant human NK3 receptor; [3H]SR142801; Ki from IC50 by Cheng-Prussoff; read-out: Ki (uM) hNK3

| SMILES | Ki |
| --- | --- |
| CC(C)C(=O)N1CCC(C(=O)N2C[C@@H](N(C)C(=O)Oc3ccc(F)cc3)[C@](C)(c3ccc(Cl)cc3)C2)CC1 (racemic) [Example 24, rac-[(3S,4R)-4-(4-Chloro-phenyl)-1-(1-isobutyryl-piperidine-4-carbonyl)-4-methyl-pyrrolidin-3-yl]-methyl-carbamic acid 4-fluoro-phenyl ester] | 0.0392 µM |
| CN(C(=O)Oc1ccc(F)cc1)[C@@H]1CN(C(=O)c2ccc(C#N)cc2)C[C@@]1(C)c1ccc(Cl)cc1 (racemic) [Example 26, rac-[(3S,4R)-4-(4-Chloro-phenyl)-1-(4-cyano-benzoyl)-4-methyl-pyrrolidin-3-yl]-methyl-carbamic acid 4-fluoro-phenyl ester] | 0.629 µM |
| CC(=O)N1CCC(C(=O)N2C[C@@H](N(C)C(=O)Oc3ccc(F)cc3)[C@](C)(c3ccc(Cl)cc3)C2)CC1 (racemic) [Example 27, rac-[(3S,4R)-1-(1-Acetyl-piperidine-4-carbonyl)-4-(4-chloro-phenyl)-4-methyl-pyrrolidin-3-yl]-methyl-carbamic acid 4-fluoro-phenyl ester] | 0.051 µM |
| CN(C(=O)Oc1ccc(F)cc1)[C@@H]1CN(C(=O)C2CCOCC2)C[C@@]1(C)c1ccc(Cl)cc1 (racemic) [Example 28, rac-[(3S,4R)-4-(4-Chloro-phenyl)-4-methyl-1-(tetrahydro-pyran-4-carbonyl)-pyrrolidin-3-yl]-methyl-carbamic acid 4-fluoro-phenyl ester] | 0.348 µM |
| Cc1ccc(N2CCC(C(=O)N3C[C@@H](N(C)C(=O)Oc4ccc(F)cc4)[C@](C)(c4ccc(Cl)cc4)C3)CC2)nc1 (racemic) [Example 29, rac-[(3S,4R)-4-(4-Chloro-phenyl)-4-methyl-1-(5′-methyl-3,4,5,6-tetrahydro-2H-[1,2′]bipyridinyl-4-carbonyl)-pyrrolidin-3-yl]-methyl-carbamic acid 4-fluoro-phenyl ester] | 0.0245 µM |
| CN(C(=O)Oc1ccc(F)cc1)[C@@H]1CN(C(=O)C2CCN(c3ccc(C#N)cn3)CC2)C[C@@]1(C)c1ccc(Cl)cc1 (racemic) [Example 30, rac-[(3S,4R)-4-(4-Chloro-phenyl)-1-(5′-cyano-3,4,5,6-tetrahydro-2H-[1,2′]bipyridinyl-4-carbonyl)-4-methyl-pyrrolidin-3-yl]-methyl-carbamic acid 4-fluoro-phenyl ester] | 0.0053 µM |
| CN(C(=O)Oc1ccc(F)cc1)[C@@H]1CN(C(=O)C2CCN(c3ccc(Cl)cn3)CC2)C[C@@]1(C)c1ccc(Cl)cc1 (racemic) [Example 32, rac-[(3S,4R)-4-(4-Chloro-phenyl)-1-(5′-chloro-3,4,5,6-tetrahydro-2H-[1,2′]bipyridinyl-4-carbonyl)-4-methyl-pyrrolidin-3-yl]-methyl-carbamic acid 4-fluoro-phenyl ester] | 0.0099 µM |
| CN(C(=O)Oc1ccc(F)cc1)[C@@H]1CN(C(=O)C2CCN(c3ccc(C(F)(F)F)cn3)CC2)C[C@@]1(C)c1ccc(Cl)cc1 (racemic) [Example 33, rac-[(3S,4R)-4-(4-Chloro-phenyl)-4-methyl-1-(5′-trifluoromethyl-3,4,5,6-tetrahydro-2H-[1,2′]bipyridinyl-4-carbonyl)-pyrrolidin-3-yl]-methyl-carbamic acid 4-fluoro-phenyl ester] | 0.02 µM |
| CN(C(=O)Oc1ccc(F)cc1)[C@@H]1CN(C(=O)c2ccc(N3CCCCC3=O)cc2)C[C@@]1(C)c1ccc(Cl)cc1 (racemic) [Example 36, rac-{(3S,4R)-4-(4-Chloro-phenyl)-4-methyl-1-[4-(2-oxo-piperidin-1-yl)-benzoyl]-pyrrolidin-3-yl}-methyl-carbamic acid 4-fluoro-phenyl ester] | 0.997 µM |

Tested on: not given
Experiment: not given
Conditions: phase II trial; cited from earlier work

| SMILES | activity on negative symptoms of schizophrenia | activity on positive symptoms of schizophrenia |
| --- | --- | --- |
| CC(=O)N(C)C1(c2ccccc2)CCN(CCC[C@]2(c3ccc(Cl)c(Cl)c3)CCCN(C(=O)c3ccccc3)C2)CC1 [SR 142,801, Osanetant] | inactive in the treatment of negative symptoms | active on positive symptoms of schizophrenia |
